For one experiment, the target named is EGFR (L861Q) (Homo sapiens, UniProt P00533, L861Q). The experiment in a line: Exemplary Kinase Panel Analysis. Type of experiment: biochemical. To be noted: 10 concentrations, 3-fold serial dilutions starting at 5 μM, duplicate.
The target in the next experiment is EGFR (d746-750) (Homo sapiens, UniProt P00533, DEL746-750). Kind of experiment: Exemplary Kinase Panel Analysis. To be noted: 10 concentrations, 3-fold serial dilutions starting at 5 μM, duplicate. Type of experiment: biochemical.
EGFR (d746-750), sequence (P00533 with tags, fused parts or gaps DEL746-750 limits assumed): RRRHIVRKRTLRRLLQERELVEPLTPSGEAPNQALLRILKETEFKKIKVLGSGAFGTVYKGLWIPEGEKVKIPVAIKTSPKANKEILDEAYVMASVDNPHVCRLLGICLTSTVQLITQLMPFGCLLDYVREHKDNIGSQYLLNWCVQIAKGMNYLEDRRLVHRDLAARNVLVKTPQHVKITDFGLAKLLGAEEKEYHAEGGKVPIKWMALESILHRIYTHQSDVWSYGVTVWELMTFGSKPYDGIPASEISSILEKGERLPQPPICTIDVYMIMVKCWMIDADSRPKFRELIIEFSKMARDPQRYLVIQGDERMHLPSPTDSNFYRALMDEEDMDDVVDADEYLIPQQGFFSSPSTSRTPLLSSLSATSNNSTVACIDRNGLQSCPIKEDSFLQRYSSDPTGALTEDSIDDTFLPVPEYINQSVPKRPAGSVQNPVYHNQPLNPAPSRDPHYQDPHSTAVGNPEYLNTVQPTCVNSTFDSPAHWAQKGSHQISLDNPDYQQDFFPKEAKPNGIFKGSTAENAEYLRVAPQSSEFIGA
Another experiment addresses T1, CYP1A2 (Homo sapiens, UniProt P05177).
T1 sequence (P05177 1-516): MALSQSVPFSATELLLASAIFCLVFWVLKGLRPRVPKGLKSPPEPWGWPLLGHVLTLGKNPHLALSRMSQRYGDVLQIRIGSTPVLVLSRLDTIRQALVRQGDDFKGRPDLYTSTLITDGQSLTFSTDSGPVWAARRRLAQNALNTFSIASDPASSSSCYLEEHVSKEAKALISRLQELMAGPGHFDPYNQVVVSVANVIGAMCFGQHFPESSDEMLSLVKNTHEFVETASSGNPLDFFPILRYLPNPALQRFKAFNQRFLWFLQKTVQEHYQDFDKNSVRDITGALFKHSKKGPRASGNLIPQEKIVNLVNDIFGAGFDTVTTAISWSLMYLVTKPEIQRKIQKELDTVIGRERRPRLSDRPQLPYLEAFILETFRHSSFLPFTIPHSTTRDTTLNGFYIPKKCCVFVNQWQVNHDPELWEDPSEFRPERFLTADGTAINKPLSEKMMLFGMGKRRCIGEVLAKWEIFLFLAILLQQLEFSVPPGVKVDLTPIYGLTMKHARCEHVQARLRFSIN
The experiment in a line: CYP1A2 inhibition LCMS. It counts as in vitro ADME.

The target in a further experiment is EGFR (d746-750/T790M) (Homo sapiens, UniProt P00533, DEL746-750/T790M). Kind of experiment: Exemplary Kinase Panel Analysis. The following applies: 10 concentrations, 3-fold serial dilutions starting at 5 μM, duplicate. It counts as biochemical.
EGFR (d746-750/T790M), sequence (P00533 with tags, fused parts or gaps DEL746-750/T790M limits assumed): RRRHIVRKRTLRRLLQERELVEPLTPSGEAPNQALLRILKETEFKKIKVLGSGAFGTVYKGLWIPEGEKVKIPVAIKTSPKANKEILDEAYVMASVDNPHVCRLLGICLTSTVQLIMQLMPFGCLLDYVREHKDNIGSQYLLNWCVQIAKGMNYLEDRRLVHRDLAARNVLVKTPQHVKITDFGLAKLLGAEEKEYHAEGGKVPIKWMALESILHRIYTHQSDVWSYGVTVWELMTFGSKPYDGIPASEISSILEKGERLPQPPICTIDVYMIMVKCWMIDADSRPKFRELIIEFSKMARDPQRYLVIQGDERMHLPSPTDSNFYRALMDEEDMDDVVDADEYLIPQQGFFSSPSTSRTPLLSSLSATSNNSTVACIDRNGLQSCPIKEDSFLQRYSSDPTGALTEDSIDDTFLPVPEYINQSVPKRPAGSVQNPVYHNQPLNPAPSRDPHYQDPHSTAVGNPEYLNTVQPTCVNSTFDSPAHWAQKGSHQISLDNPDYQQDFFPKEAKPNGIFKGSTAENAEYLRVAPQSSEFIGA
In a further experiment the target is CYP2D6 (Homo sapiens, UniProt P10635). The experiment in a line: CYP2D6 inhibition LCMS. Type of experiment: in vitro ADME.
CYP2D6, sequence (P10635 whole entry): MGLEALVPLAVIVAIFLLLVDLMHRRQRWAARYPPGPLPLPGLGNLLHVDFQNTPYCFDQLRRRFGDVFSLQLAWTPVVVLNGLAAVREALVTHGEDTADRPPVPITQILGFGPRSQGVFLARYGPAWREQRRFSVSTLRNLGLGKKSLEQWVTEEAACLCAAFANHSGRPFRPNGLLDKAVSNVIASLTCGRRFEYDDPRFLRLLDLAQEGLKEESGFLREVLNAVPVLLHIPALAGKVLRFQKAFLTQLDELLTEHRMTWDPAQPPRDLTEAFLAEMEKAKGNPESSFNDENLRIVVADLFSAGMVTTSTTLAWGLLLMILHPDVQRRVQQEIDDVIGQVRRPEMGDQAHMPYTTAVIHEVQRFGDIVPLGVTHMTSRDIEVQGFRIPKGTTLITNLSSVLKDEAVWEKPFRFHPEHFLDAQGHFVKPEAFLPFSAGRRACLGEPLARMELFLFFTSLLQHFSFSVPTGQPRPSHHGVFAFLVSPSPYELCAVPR
Another experiment has as its target EGFR (Homo sapiens, UniProt P00533). The experiment in a line: Exemplary Kinase Panel Analysis. The following applies: 10 concentrations, 3-fold serial dilutions starting at 5 μM, duplicate. It counts as biochemical. The procedure:
Kinase Panel: These compounds were tested against 439 kinases. […]. […] The results are presented in Table 2 below, where empty cells indicate no inhibition or compound activity that could not be fit to an IC50 curve.

A further experiment deals with CK1g1 (Homo sapiens, UniProt Q9HCP0). Kind of experiment: Exemplary Kinase Panel Analysis. Type of experiment: biochemical. To be noted: 10 concentrations, 3-fold serial dilutions starting at 5 μM, duplicate.
CK1g1, sequence (Q9HCP0 whole entry): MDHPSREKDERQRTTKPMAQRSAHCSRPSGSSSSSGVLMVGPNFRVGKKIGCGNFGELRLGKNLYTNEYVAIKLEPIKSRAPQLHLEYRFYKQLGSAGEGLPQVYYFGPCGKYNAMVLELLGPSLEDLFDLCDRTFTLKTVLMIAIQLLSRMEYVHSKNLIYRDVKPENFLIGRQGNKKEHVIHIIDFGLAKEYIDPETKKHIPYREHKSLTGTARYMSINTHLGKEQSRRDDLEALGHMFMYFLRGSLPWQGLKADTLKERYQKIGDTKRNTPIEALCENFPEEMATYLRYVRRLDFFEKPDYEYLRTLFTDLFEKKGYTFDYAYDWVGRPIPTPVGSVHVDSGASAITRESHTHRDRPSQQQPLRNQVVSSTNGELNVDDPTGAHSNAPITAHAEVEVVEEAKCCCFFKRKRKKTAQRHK

EGFR, sequence (P00533 25-1210): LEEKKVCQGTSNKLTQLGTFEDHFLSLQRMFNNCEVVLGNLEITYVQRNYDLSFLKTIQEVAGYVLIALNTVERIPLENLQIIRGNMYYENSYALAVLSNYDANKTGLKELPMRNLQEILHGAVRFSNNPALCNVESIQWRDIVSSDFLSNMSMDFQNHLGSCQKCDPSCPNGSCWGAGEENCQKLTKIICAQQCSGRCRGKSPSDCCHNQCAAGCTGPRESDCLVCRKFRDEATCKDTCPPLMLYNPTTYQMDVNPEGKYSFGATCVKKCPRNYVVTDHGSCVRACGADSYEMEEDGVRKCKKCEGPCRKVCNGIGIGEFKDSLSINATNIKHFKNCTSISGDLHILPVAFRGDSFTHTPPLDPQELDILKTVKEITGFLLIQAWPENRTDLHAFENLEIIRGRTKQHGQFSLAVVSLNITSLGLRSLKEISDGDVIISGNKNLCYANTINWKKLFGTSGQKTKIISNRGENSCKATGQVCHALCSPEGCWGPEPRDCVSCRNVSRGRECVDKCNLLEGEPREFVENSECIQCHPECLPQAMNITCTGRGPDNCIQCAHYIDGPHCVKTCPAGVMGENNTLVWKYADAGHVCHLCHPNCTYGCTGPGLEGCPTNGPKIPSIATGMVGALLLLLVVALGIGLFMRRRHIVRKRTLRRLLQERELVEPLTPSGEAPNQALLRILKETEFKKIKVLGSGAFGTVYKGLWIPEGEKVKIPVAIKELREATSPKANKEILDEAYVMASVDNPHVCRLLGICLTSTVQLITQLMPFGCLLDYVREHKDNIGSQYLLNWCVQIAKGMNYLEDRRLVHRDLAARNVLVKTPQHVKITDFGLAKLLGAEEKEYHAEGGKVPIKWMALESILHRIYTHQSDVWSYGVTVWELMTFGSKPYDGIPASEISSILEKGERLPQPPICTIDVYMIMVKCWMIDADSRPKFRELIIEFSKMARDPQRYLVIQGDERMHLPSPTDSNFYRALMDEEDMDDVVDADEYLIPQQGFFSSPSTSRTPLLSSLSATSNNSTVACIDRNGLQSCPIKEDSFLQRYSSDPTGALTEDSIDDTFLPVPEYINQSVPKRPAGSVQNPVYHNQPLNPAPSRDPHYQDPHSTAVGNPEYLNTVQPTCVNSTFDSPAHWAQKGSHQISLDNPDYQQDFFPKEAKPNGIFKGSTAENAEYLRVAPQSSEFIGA
EGFR (L861Q), sequence (P00533 25-1210 L861Q): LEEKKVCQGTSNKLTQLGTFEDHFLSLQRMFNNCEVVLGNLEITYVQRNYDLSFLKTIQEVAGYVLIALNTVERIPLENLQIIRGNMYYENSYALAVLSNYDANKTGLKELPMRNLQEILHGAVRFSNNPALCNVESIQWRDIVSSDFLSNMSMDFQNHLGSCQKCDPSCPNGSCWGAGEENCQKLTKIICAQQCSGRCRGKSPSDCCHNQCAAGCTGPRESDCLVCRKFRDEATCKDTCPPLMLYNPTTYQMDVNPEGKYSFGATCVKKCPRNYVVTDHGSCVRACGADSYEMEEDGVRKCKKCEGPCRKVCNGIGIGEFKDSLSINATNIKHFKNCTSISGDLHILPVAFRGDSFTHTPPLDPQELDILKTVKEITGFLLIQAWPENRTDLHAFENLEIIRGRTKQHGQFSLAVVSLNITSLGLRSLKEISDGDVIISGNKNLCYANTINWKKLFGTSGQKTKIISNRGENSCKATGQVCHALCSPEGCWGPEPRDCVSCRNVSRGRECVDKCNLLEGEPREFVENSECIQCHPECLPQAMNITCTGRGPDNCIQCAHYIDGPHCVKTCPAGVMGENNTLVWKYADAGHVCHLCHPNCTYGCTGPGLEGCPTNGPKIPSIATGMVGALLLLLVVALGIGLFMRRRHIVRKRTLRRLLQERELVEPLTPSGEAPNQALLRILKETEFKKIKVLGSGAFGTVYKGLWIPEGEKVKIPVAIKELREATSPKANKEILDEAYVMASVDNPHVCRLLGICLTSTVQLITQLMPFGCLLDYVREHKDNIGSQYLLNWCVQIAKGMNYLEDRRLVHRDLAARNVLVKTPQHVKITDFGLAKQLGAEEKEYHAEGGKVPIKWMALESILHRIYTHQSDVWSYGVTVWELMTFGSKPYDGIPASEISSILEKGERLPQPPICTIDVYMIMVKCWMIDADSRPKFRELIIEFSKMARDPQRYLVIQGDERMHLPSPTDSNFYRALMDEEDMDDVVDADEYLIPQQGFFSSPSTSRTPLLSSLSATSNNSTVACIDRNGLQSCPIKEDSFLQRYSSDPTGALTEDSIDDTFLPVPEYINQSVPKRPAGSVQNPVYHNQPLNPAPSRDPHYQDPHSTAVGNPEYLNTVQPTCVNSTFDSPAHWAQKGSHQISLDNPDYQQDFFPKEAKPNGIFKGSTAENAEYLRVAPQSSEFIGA

For orientation: IC50 means the concentration that gives 50% inhibition. As to `C=CC(=O)Nc1cc(CN2CCN(C)C(=O)C2)cc(-c2cnc3ccccc3n2)c1` [Compound 1a], the IC50 against EGFR (L861Q) is 352 nM; on EGFR (d746-750) it was 345 nM; on CYP1A2 (first session (before /)), 34 µM; on CYP1A2 (second session (after /)) it was above 100 µM; at EGFR (d746-750/T790M), 87.9 nM; at CYP2D6 (first session (before /)) it was above 100 µM. The figures for the IC50 against CYP2D6 (second session (after /)), against EGFR and at CK1g1 were above 100 µM, 370 nM and 588 nM, respectively.

Take `C=CC(=O)Nc1cc(CN2CCNC(=O)C2)cc(-c2cnc3ccccc3n2)c1` [Compound 1b, N-[3-[(3-oxopiperazin-1-yl)methyl]-5-quinoxalin-2-yl-phenyl] prop-2-enamide]: the IC50 against EGFR (L861Q) was 2650 nM; on EGFR (d746-750), 2290 nM; at CYP1A2 (first session (before /)), above 100 µM; on CYP1A2 (second session (after /)), above 100 µM; on EGFR (d746-750/T790M), 560 nM; against CYP2D6 (first session (before /)) it was above 100 µM. Also, the IC50 against CYP2D6 (second session (after /)) is above 100 µM; against EGFR, 2860 nM; against CK1g1 it was 738 nM.

As for `C=CC(=O)Nc1cc(CC(=O)OC)cc(-c2cnc3ccccc3n2)c1` [Compound 2], the IC50 against CYP1A2 (first session (before /)) was 90 µM; against CYP1A2 (second session (after /)), 5.1 µM; against EGFR (d746-750/T790M) it was 299 nM; at CYP2D6 (first session (before /)) it was above 100 µM; against CYP2D6 (second session (after /)) it was above 100 µM; at CK1g1 it was 80.2 nM.

As to `C=CC(=O)Nc1cc(NS(C)(=O)=O)cc(-c2cnc3ccccc3n2)c1` [Compound 3], the IC50 is above 100 µM against CYP1A2 (first session (before /)); above 100 µM on CYP1A2 (second session (after /)); 996 nM on EGFR (d746-750/T790M); above 100 µM on CYP2D6 (first session (before /)); above 100 µM at CYP2D6 (second session (after /)); 109 nM against CK1g1.

The record behind these values is US10045981B2, “Selective kinase inhibitors” (JAKPHARM, LLC, priority 2015, dated 2018).
